Test results as given in patent US12398154B2, “Azaquinazoline pan-KRas inhibitors” (Mirati Therapeutics, Inc., priority 2020, dated 2025).

Tests used:
[1] = target: KRas G12D (Homo sapiens, UniProt P01116, G12D); test: biochemical;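 further: TR-FRET displacement binding assay on KRas, read after a one-hour incubation at room temperature, IC50 fitted from percent-of-control values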
Experimental: (§2) The ability of a compound to bind to KRas was measured using a TR-FRET displacement assay. […] After a 60-minute incubation at room temperature, the reaction was measured using a BMG LABTECH CLARIO star Plus via TR-FRET. […] The POC values were fit to a 4-parameter IC50 equation and the IC50 value reported.

[2] = target: KRas G12V (Homo sapiens, UniProt P01116, G12V); test: biochemical;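 further: KRas binding measured by TR-FRET displacement at room temperature, IC50 fitted from percent of control values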
Experimental: as §2

[3] = target: KRas G12R (Homo sapiens, UniProt P01116, G12R); test: biochemical;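 further: TR-FRET displacement assay of compound binding to KRas, read after one hour at room temperature, potency from a four-parameter fit of percent-of-control values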
Experimental: as §2

[4] = test system: pERK in MKN1 cells; test: Inhibition of KRas phosphorylation of ERK (Cisbio HTRF pERK assay); details: Homo sapiens, MKN-1, 3 h, read-out: Inhibition (HTRF IC50) of KRas-mediated Phosphorylation of ERK, MKN1
[5] = test system: pERK in PSN1 cells; test: as above; details: Homo sapiens, PSN1, 3 h, read-out: Inhibition (HTRF IC50) of KRas-mediated Phosphorylation of ERK, PSN1
[6] = test system: pERK in ASPC1 cells; test: as above; details: Homo sapiens, ASPC1, read-out: Inhibition (HTRF IC50) of KRas-mediated Phosphorylation of ERK, AsPC-1
Experimental: (§3) To harvest cells from flask using 0.05% Trypsin/EDTA solution. Add 10 mL of media to stop trypsinizing. Pipette the cells into a conical bottom 50 mL centrifuge tube and centrifuge 5 min×1000 rpm. • 2. Re-suspend the cell pellet in media, take a cell count, and then adjust the cell density using fresh media. • 3. Seed 6,000 cells into cell culture plate with 50 μL media. […] Incubate cell plate overnight in a 37° C., 5% CO2 incubator. • Compound titrations • 1. Use Tecan to complete the compound addition. Compounds start from 10 uM top, 3-fold dilution, and 10 doses. The final DMSO concentration is 0.8%. Dispensed 0.2 uM Trametinib as Min control. • 2. Incubate cell plate for 3 hrs in the incubator. • Detection with cisbio pERK HTRF kit • 1. […] At the end of the compound treatment, flick-off the media. • 3. Add 35 μL of lysis buffer per well using a Multidrop Combi. Then place on a plate agitator shaking at 300 rpm at 4° C. for 40 mins. • 4. Make up the HTRF antibody buffer. For each assay plate, mix 50 μL of d2-conjugate antibody with 950 μL of detection buffer. Similarly, mix 50 μL of Cryptate antibody with 950 μL of detection buffer. Then mix the two diluted antibodies together. • 5. Dispense 3.4 μL the antibody buffer to wells of an empty assay plate. Seal the plate and centrifuge plate 30 sec×1000 rpm. • 6. At the end of the 4° C. lysis, centrifuge the lysate plates 3 mins×1500 rpm. • 7. Use the Bravo to transfer 13.6 μL of lysate from cell culture plate to assay plate.
(§4) Then incubate assay plate for 2 hrs at room temperature. […] At the end of incubation, read plate on the Envision after centrifuging plate 30 sec× • 1000 rpm.

[7] = test system: pERK in H727 cells; test: as above; details: Homo sapiens, NCI-H727, read-out: Inhibition (HTRF IC50) of KRas-mediated Phosphorylation of ERK, H727
[8] = test system: pERK in H460 cells; test: as above; details: Homo sapiens, NCI-H460, read-out: Inhibition (HTRF IC50) of KRas-mediated Phosphorylation of ERK, H460
[9] = test system: pERK in HCT116 cells; test: as above; details: Homo sapiens, HCT-116, read-out: Inhibition (HTRF IC50) of KRas-mediated Phosphorylation of ERK, HCT116
[10] = test system: pERK in H358 cells; test: as above; details: Homo sapiens, NCI-H358, read-out: Inhibition (HTRF IC50) of KRas-mediated Phosphorylation of ERK, H358
Experimental: as §3, §4

[11] = test system: phospho-ERK in AsPC-1 (G12D) cells; test: Inhibition of KRas-mediated phosphorylation of ERK (in-cell western); type: cell-based; details: Homo sapiens, ASPC1, 3 h, 3 hours compound, phospho-ERK normalized to GAPDH
In short: (§1)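 Fixed-cell immunodetection of ERK phosphorylation following 3 h compound treatment (0.5% DMSO). IC50 derived by 4-parameter fit of GAPDH-normalized signal versus DMSO control.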

[12] = test system: phospho-ERK in NCI-H460 (Q61H) cells; test: as above; type: cell-based; details: Homo sapiens, NCI-H460, 3 h, 3 hours compound, phospho-ERK normalized to GAPDH
In short: as §1

[13] = test system: phospho-ERK in NCI-H727 (G12V) cells; test: as above; type: cell-based; details: Homo sapiens, NCI-H727, 3 h, 3 hours compound, phospho-ERK normalized to GAPDH
In short: as §1

[14] = test system: pERK in A549 cells; test: Inhibition of KRas phosphorylation of ERK (Cisbio HTRF pERK assay); details: Homo sapiens, A549, read-out: Inhibition (HTRF IC50) of KRas-mediated Phosphorylation of ERK, A549
Experimental: as §3, §4

KRas G12V, sequence (P01116 1-169 isoform P01116-2 G12V): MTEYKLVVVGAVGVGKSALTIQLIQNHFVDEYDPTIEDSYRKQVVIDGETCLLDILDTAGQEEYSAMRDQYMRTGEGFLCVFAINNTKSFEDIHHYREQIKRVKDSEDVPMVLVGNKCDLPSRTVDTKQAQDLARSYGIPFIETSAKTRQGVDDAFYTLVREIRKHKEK
KRas G12D, sequence (P01116 1-169 isoform P01116-2 G12D): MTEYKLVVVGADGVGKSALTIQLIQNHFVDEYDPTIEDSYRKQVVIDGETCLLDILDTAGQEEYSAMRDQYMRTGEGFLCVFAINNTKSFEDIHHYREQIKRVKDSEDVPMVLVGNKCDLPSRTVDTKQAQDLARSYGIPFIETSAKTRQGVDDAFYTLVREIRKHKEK
KRas G12R, sequence (P01116 1-169 isoform P01116-2 G12R): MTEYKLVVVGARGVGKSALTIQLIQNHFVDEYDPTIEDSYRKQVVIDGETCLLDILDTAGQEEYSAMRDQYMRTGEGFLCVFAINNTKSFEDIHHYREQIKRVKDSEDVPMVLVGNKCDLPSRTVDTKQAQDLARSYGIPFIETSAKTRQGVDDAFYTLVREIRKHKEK

Structure (SMILES) | IC50 [1] [µM] | IC50 [2] [µM] | IC50 [3] [µM] | IC50 [4] [µM] | IC50 [5] [µM] | IC50 [6] [µM] | IC50 [7] [µM] | IC50 [8] [µM] | IC50 [9] [µM] | IC50 [10] [µM] | IC50 [14] [µM] | IC50 [11] [nM] | IC50 [12] [nM] | IC50 [13] [nM]
O=C1NC(=O)C2(CCCN(c3nc(OC[C@@]45CCCN4C[C@H](F)C5)nc4c(F)c(-c5cc(O)cc6ccc(F)c(F)c56)ncc34)C2)N1 (stereo partly drawn) [Example 444, 7-(7-(7,8-difluoro-3-hydroxynaphthalen-1-yl)-8-fluoro-2-(((2R,7aS)-2-fluorohexahydro-1H-pyrrolizin-7a-yl)methoxy)pyrido[4,3-d]pyrimidin-4-yl)-1,3,7-triazaspiro[4.5]decane-2,4-dione] | 0.005 | ≤ 0.002 | ≤ 0.002 | 0.037 | ≥ 10 | 1.69 | 1.16 | 1.56 | 1.76 |  | 0.734 | 2440 | 656 | 1740
O=C1CC2(CCCN(c3nc(OC[C@@]45CCCN4C[C@H](F)C5)nc4c(F)c(-c5cc(O)cc6ccc(F)c(F)c56)ncc34)C2)N1 (stereo partly drawn) [Example 452, 6-(7-(7,8-difluoro-3-hydroxynaphthalen-1-yl)-8-fluoro-2-(((2R,7aS)-2-fluorohexahydro-1H-pyrrolizin-7a-yl)methoxy)pyrido[4,3-d]pyrimidin-4-yl)-1,6-diazaspiro[3.5]nonan-2-one] | 0.004 | ≤ 0.002 | ≤ 0.002 | 0.041 | 4.08 | 0.204 | 0.165 | 0.639 | 1.51 |  | 0.224 | 182 | 154 | 793
CCc1c(F)ccc2cc(O)cc(-c3ncc4c(N5CCCC6(COC(=O)N6)C5)nc(OC[C@@]56CCCN5C[C@H](F)C6)nc4c3F)c12 (stereo partly drawn) [Example 478, 7-(7-(8-ethyl-7-fluoro-3-hydroxynaphthalen-1-yl)-8-fluoro-2-(((2R,7aS)-2-fluorohexahydro-1H-pyrrolizin-7a-yl)methoxy)pyrido[4,3-d]pyrimidin-4-yl)-3-oxa-1,7-diazaspiro[4.5]decan-2-one] | ≤ 0.002 | ≤ 0.002 | 0.005 | 0.08 | ≥ 10 | 0.192 | 0.871 | 0.713 | 5.43 |  | 1.25 |  |  | 
CCc1c(F)ccc2cc(O)cc(-c3ncc4c(N5C[C@H](O)CC[C@@H](O)C5)nc(OC[C@@]56CCCN5C[C@H](F)C6)nc4c3F)c12 [Example 490, (3R,6R)-1-(7-(8-ethyl-7-fluoro-3-hydroxynaphthalen-1-yl)-8-fluoro-2-(((2R,7aS)-2-fluorohexahydro-1H-pyrrolizin-7a-yl)methoxy)pyrido[4,3-d]pyrimidin-4-yl)azepane-3,6-diol] | ≤ 0.002 | ≤ 0.002 | 0.003 | 0.041 | ≥ 10 | 0.395 | 0.205 | 0.305 | 0.368 |  | 0.298 |  |  | 
CCc1c(F)ccc2cc(O)cc(-c3ncc4c(N5CCCC6(CCC(F)(F)C6)C5)nc(OC[C@@]56CCCN5C[C@H](F)C6)nc4c3F)c12 (stereo partly drawn) [Example 509, 4-(4-(2,2-difluoro-7-azaspiro[4.5]decan-7-yl)-8-fluoro-2-(((2R,7aS)-2-fluorohexahydro-1H-pyrrolizin-7a-yl)methoxy)pyrido[4,3-d]pyrimidin-7-yl)-5-ethyl-6-fluoronaphthalen-2-ol] | 0.006 | 0.006 | 0.012 | 0.089 | 6.14 | 0.144 | 0.338 | 0.206 | 0.314 |  | 0.211 |  |  | 
CCc1c(F)ccc2cc(O)cc(-c3ncc4c(N5CCCC6(CCC(O)C6)C5)nc(OC[C@@]56CCCN5C[C@H](F)C6)nc4c3F)c12 (stereo partly drawn) [Example 510, 7-(7-(8-ethyl-7-fluoro-3-hydroxynaphthalen-1-yl)-8-fluoro-2-(((2R,7aS)-2-fluorotetrahydro-1H-pyrrolizin-7a(5H)-yl)methoxy)pyrido[4,3-d]pyrimidin-4-yl)-7-azaspiro[4.5]decan-2-ol] | 0.01 | 0.008 | 0.009 | 0.073 | 5.1 | 0.186 | 0.388 | 0.397 | 0.954 |  | 0.515 |  |  | 

Stronger by IC50 [4], values ahead:

IC50 [1] [µM] | IC50 [2] [µM] | IC50 [3] [µM] | IC50 [4] [µM] | IC50 [5] [µM] | IC50 [6] [µM] | IC50 [7] [µM] | IC50 [8] [µM] | IC50 [9] [µM] | IC50 [10] [µM] | IC50 [14] [µM] | Structure (SMILES) | IC50 [11] [nM] | IC50 [12] [nM] | IC50 [13] [nM]
≤ 0.002 | ≤ 0.002 | ≤ 0.002 | 0.011 | 7.39 | 0.099 | 0.113 | 0.166 | 0.133 | 0.057 |  | CCc1c(F)ccc2cc(O)cc(-c3ncc4c(N5CCCC(O)CC5)nc(OC[C@@]56CCCN5C[C@H](F)C6)nc4c3F)c12 (stereo in doubt) [Example 346, 1-(7-(8-ethyl-7-fluoro-3-hydroxynaphthalen-1-yl)-8-fluoro-2-(((2R,7aS)-2-fluorohexahydro-1H-pyrrolizin-7a-yl)methoxy)pyrido[4,3-d]pyrimidin-4-yl)azepan-4-ol] |  |  | 
 |  |  | 0.013 | 8.79 | 0.083 | 0.138 | 0.082 | 0.296 | 0.02 |  | CCc1c(F)ccc2cc(O)cc(-c3ncc4c(N5CCOCC(O)C5)nc(OC[C@@]56CCCN5C[C@H](F)C6)nc4c3F)c12 (stereo partly drawn) [Example 345, 4-(7-(8-ethyl-7-fluoro-3-hydroxynaphthalen-1-yl)-8-fluoro-2-(((2R,7aS)-2-fluorotetrahydro-1H-pyrrolizin-7a(5H)-yl)methoxy)pyrido[4,3-d]pyrimidin-4-yl)-1,4-oxazepan-6-ol] |  |  | 
0.038 | 0.007 | 0.006 | 0.006 | ≥ 10 | 0.24 | 0.1 | 0.047 | 0.111 |  | 0.215 | CCc1c(F)ccc2cc(O)cc(-c3ncc4c(N5CCOCC6(COC6)C5)nc(OC[C@@]56CCCN5C[C@H](F)C6)nc4c3F)c12 [Example 480, 5-ethyl-6-fluoro-4-(8-fluoro-2-(((2R,7aS)-2-fluorohexahydro-1H-pyrrolizin-7a-yl)methoxy)-4-(2,6-dioxa-9-azaspiro[3.6]decan-9-yl)pyrido[4,3-d]pyrimidin-7-yl)naphthalen-2-ol] |  |  | 
0.027 | 0.008 | 0.006 | 0.013 | ≥ 10 | 0.109 | 0.1 | 0.162 | 0.474 |  | 0.145 | CCc1c(F)ccc2cc(O)cc(-c3ncc4c(N5CCOCC(OC)C5)nc(OC[C@@]56CCCN5C[C@H](F)C6)nc4c3F)c12 (stereo partly drawn) [Example 499, 5-ethyl-6-fluoro-4-(8-fluoro-2-(((2R,7aS)-2-fluorotetrahydro-1H-pyrrolizin-7a(5H)-yl)methoxy)-4-(6-methoxy-1,4-oxazepan-4-yl)pyrido[4,3-d]pyrimidin-7-yl)naphthalen-2-ol] |  |  | 
≤ 0.002 | ≤ 0.002 | ≤ 0.002 | 0.031 | ≥ 10 | 0.014 | 0.05 | 0.327 |  | 0.016 |  | CCc1c(F)ccc2cc(O)cc(-c3ncc4c(N5CCCn6nc(C(=O)N(C)C)c(F)c6C5)nc(OC[C@@]56CCCN5C[C@H](F)C6)nc4c3F)c12 [Example 505, 5-(7-(8-ethyl-7-fluoro-3-hydroxynaphthalen-1-yl)-8-fluoro-2-(((2R,7aS)-2-fluorohexahydro-1H-pyrrolizin-7a-yl)methoxy)pyrido[4,3-d]pyrimidin-4-yl)-3-fluoro-N,N-dimethyl-5,6,7,8-tetrahydro-4H-pyrazolo[1,5-a][1,4]diazepine-2-carboxamide] |  |  | 
